From PMC6572996, “Silver(I) Complexes of the Pharmaceutical Agents Metronidazole and 4-Hydroxymethylpyridine: Comparison of Cytotoxic Profile for Potential Clinical Application” (Molecules, 2019)

Assays:
[1] = Cytotoxicity over four assays in both cell lines; type: cell-based; conditions: mouse (Balb/c 3T3) and human (HepG2), Balb/c 3T3 clone A31 fibroblasts and HepG2 hepatoma cells, mostly greater than 50%, read-out: Viability of the cells at the highest concentrations used
Description: (§1) Data obtained from the measurement of the optical density in these assays were transformed to percentages in relation to the control group, considered to be 100% for the MTT, NRU, and TPC assays and 0% for the LDH assay (Figure 1).
The human hepatoma cell line (HepG2) was purchased from the American Type Culture Collection (ATCC HB-8065). These cells were cultured in Minimum Essential Medium Eagle (MEME) (ATCC). The murine fibroblast cell line (Balb/c 3T3 clone A31) (gift from Department of Swine Diseases of the National Veterinary Research Institute in Pulawy) was cultured in Dulbecco’s Modified Eagle’s Medium (DMEM) (ATCC). The media were supplemented with 10% BCS (Balb/c 3T3), 10% FBS (HepG2), 1% L-glutamine, and 1% antibiotic solution. The cells were maintained in 75 cm^2 cell culture flasks (Nunc, Roskilde, Denmark) in a humidified incubator, NuAire (Plymouth, MN, USA) at 37 °C, in an atmosphere of 5% CO2. The medium was refreshed every two or three days and the cells were trypsinized by 0.25% trypsin–0.02% EDTA after reaching 70–80% confluence. […]
The concentration ranges of compounds were chosen according to their solubility and their plasma level. […] Cytotoxicity was assessed after 72 h of exposure of the cells to the compounds. […]
The results of the tests were expressed as a mean ± SD. […] The IC50 values were calculated by GraphPad Prism 5 software (San Diego, CA, USA). […]

HepG2 cells [2] = experiment: TPC assay (total protein content), HepG2; type: cell-based, human; conditions: for Lowest concentration with significant (p ≤ 0.05) decrease of total protein content (TPC): HepG2, 72 h, vs negative control 0.1% DMSO
Description: as §1
(§2) The human hepatoma cell line (HepG2) was purchased from the American Type Culture Collection (ATCC HB-8065). These cells were cultured in Minimum Essential Medium Eagle (MEME) (ATCC). The murine fibroblast cell line (Balb/c 3T3 clone A31) (gift from Department of Swine Diseases of the National Veterinary Research Institute in Pulawy) was cultured in Dulbecco’s Modified Eagle’s Medium (DMEM) (ATCC). The media were supplemented with 10% BCS (Balb/c 3T3), 10% FBS (HepG2), 1% L-glutamine, and 1% antibiotic solution. The cells were maintained in 75 cm^2 cell culture flasks (Nunc, Roskilde, Denmark) in a humidified incubator, NuAire (Plymouth, MN, USA) at 37 °C, in an atmosphere of 5% CO2. The medium was refreshed every two or three days and the cells were trypsinized by 0.25% trypsin–0.02% EDTA after reaching 70–80% confluence. Single cell suspensions were prepared and adjusted to a density of 2 × 10^5 cells/mL (HepG2) and 5 × 10^4 cells/mL (Balb/c 3T3). The cell suspension was transferred to 96-well plates (100 µL/well) and incubated for 24 h before the exposure to the study compounds.
(§3) The concentration ranges of compounds were chosen according to their solubility and their plasma level. Each compound was dissolved in DMSO. The final concentration of DMSO was 0.1% in the medium. The same final concentrations of the solvent and the 1% Trition-X 100 solution were used as the negative and positive controls, respectively. […] All compound solutions in the medium were freshly prepared and protected from light. […] The concentration range was selected on the basis of results from previous studies. Each concentration was tested in six replicates with three independent experiments. Cytotoxicity was assessed after 72 h of exposure of the cells to the compounds. The medium was not changed during the incubation time.
(§4) The assay was based upon staining total cellular protein (proliferation). After incubation, the medium containing the compound was removed and 100 µL of Coomassie Brilliant Blue R-250 dye were added to each well. The plate was shaken for 10 min. Then, the stain was removed and the cells were rinsed twice with 100 µL of washing solution (glacial acetic acid/ethanol/water). After that, a 100 µL portion of the desorbing solution (1 M potassium acetate) was added and plates were shaken again for 10 min. The absorbance was measured at 595 nm in a microplate reader (LabSystems Multiskan RC, Thermo Fisher Scientific, Waltham, MA, USA) using a blank as a reference. Cytotoxicity was expressed as a percentage of the negative control (0.1% DMSO).
(§5) The results of the tests were expressed as a mean ± SD. The experiments were performed in three independent repetitions. Statistical analysis was performed using GraphPad Prism 5 (San Diego, CA, USA). One-way analysis of variance (ANOVA) followed by Dunnett’s post-hoc test was applied. The 50% inhibition (cytotoxicity) concentrations (IC50) were derived from the dose–response curve plotted with the concentration of the compound (X-axis) vs. cell viability percent (Y-axis). The IC50 values were calculated by GraphPad Prism 5 software (San Diego, CA, USA). Statistical comparisons among IC50 values were performed by the analysis of variance (ANOVA) followed by the Tukey test. Values of p ≤ 0.05 were considered statistically significant.

HepG2 cells [3] = experiment: Leakage LDH assay (cellular membrane integrity), HepG2; type: cell-based, human; conditions: for Lowest concentration with significant (p ≤ 0.05) disintegration of the cellular membrane (LDH): HepG2, 72 h, vs negative control 0.1% DMSO
Description: as §1, §2, §3
(§6) The integrity of the plasma membrane was assessed using the test of lactate dehydrogenase (LDH) release, which was monitored using the commercially available Cytotoxicity Detection Kit (LDH) (Roche Diagnostics, Warsaw, Poland). The medium (100 µL/well) without cells was transferred into the corresponding wells of an optically clear 96-well flat bottom microplate and a 100 µl reaction mixture was added to each well. Then, the plates were incubated for 30 min at room temperature in darkness. After that time, a 50 µL/well 1 M HCl was added to stop the reaction. The absorbance was measured at 492 nm in a microplate reader (LabSystems Multiskan RC, Thermo Fisher Scientific, Waltham, MA, USA) using a blank as a reference.
as §5

Balb/c 3T3 cells [4] = experiment: NRU assay (lysosomal activity), Balb/c 3T3; type: cell-based, mouse; conditions: for Lowest concentration with significant (p ≤ 0.05) inhibition of lysosomal activity (NRU): Balb/c 3T3, 72 h, vs negative control 0.1% DMSO
Description: as §1, §2, §3
(§7) The assay, based on the staining of living cells by neutral red, was performed according to the protocol described by Borenfreund and Puerner. After incubation, the medium containing the compound was removed and the cells were washed with PBS. Then, a 100 µL/well of NR solution (50 µg/mL) was added for 3 h. After that time, the cells were washed with PBS. The dye from viable cells was released by extraction with a mixture of acetic acid, ethanol, and water. After 10 min of shaking, the absorbance of the dissolved NR was measured at 540 nm in a microplate reader (LabSystems Multiskan RC, Thermo Fisher Scientific, Waltham, MA, USA) using a blank as a reference. Cytotoxicity was expressed as a percentage of the negative control (0.1% DMSO).
as §5

Balb/c 3T3 cells [5] = experiment: Leakage LDH assay (cellular membrane integrity), Balb/c 3T3; type: cell-based, mouse; conditions: for Lowest concentration with significant (p ≤ 0.05) disintegration of the cellular membrane (LDH): Balb/c 3T3, 72 h, vs negative control 0.1% DMSO
Description: as §1, §2, §3, §6, §5

Balb/c 3T3 cells [6] = experiment: MTT assay (mitochondrial activity), Balb/c 3T3; type: cell-based, mouse; conditions: for Lowest concentration with significant (p ≤ 0.05) inhibition of mitochondrial activity (MTT): Balb/c 3T3, 72 h, vs negative control 0.1% DMSO
Description: as §1, §2, §3
(§8) The metabolic activity of living cells was assessed by measuring the activity of dehydrogenases. After incubation of the cells with the compounds, a 10 μL portion of the MTT solution (5 mg/ml in PBS) was added to each well of the 96-well plates and incubated. After 3 h, the MTT solution was removed and the intracellular formazan crystals were dissolved in 100 µl DMSO. The plate was shaken for 15 min at room temperature and transferred to a microplate reader (LabSystems Multiskan RC, Thermo Fisher Scientific, Waltham, MA, USA) to measure the absorbance at 570 nm, using blanks as a reference. Cytotoxicity was expressed as a percentage of the negative control (0.1% DMSO).
as §5

10T1/2 cell line = system: 10T1/2 cell line; set-up: method as in PMID 26828469; conditions: same observation as in this study; cited from earlier work
Balb/c 3T3 cells [7] = experiment: TPC assay (total protein content), Balb/c 3T3; type: cell-based, mouse; conditions: for Lowest concentration with significant (p ≤ 0.05) decrease of total protein content (TPC): Balb/c 3T3, 72 h, vs negative control 0.1% DMSO
Description: as §1, §2, §3, §4, §5

HepG2 cells [8] = experiment: MTT assay (mitochondrial activity), HepG2; type: cell-based, human; conditions: for Lowest concentration with significant (p ≤ 0.05) inhibition of mitochondrial activity (MTT): HepG2, 72 h, vs negative control 0.1% DMSO
Description: as §1, §2, §3, §8, §5

[9] = system: murine melanoma (B16) cell line; set-up: method as in PMID 26828469; conditions: same observation as in this study; cited from earlier work
HepG2 cells [10] = experiment: NRU assay (lysosomal activity), HepG2; type: cell-based, human; conditions: for Lowest concentration with significant (p ≤ 0.05) inhibition of lysosomal activity (NRU): HepG2, 72 h, vs negative control 0.1% DMSO
Description: as §1, §2, §3, §7, §5

OCc1ccncc1 [4-hydroxymethylpyridine]
viability at 72 h [1]: > 50% | IC50 (HepG2 cells [2]; Homo sapiens, HepG2, 72 h exposure, mean (n = 3) ± SEM, read-out: Inhibitory concentration IC50, TPC): > 227 µM | IC50 (HepG2 cells [3]; Homo sapiens, HepG2, 72 h exposure, mean (n = 3) ± SEM, read-out: Inhibitory concentration IC50, LDH): > 227 µM | Lowest concentration with significant (p ≤ 0.05) inhibition of lysosomal activity (NRU) (Balb/c 3T3 cells [4]): 7.0 µM | IC50 (Balb/c 3T3 cells [4]; Mus musculus, BALB/c3T3, Balb/c 3T3, 72 h exposure, mean (n = 3) ± SEM, read-out: Inhibitory concentration IC50, NRU): > 227 µM | IC50 (Balb/c 3T3 cells [5]; Mus musculus, BALB/c3T3, Balb/c 3T3, 72 h exposure, mean (n = 3) ± SEM, read-out: Inhibitory concentration IC50, LDH): > 227 µM | Lowest concentration with significant (p ≤ 0.05) inhibition of mitochondrial activity (MTT) (Balb/c 3T3 cells [6]): 13.6 µM | IC50 (Balb/c 3T3 cells [6]; Mus musculus, BALB/c3T3, Balb/c 3T3, 72 h exposure, mean (n = 3) ± SEM, read-out: Inhibitory concentration IC50, MTT): > 227 µM | Cytotoxicity in 10T1/2 cell line (10T1/2 cell line): poorly cytotoxic | Lowest concentration with significant (p ≤ 0.05) decrease of total protein content (TPC) (Balb/c 3T3 cells [7]): 57 µM | IC50 (Balb/c 3T3 cells [7]; Mus musculus, BALB/c3T3, Balb/c 3T3, 72 h exposure, mean (n = 3) ± SEM, read-out: Inhibitory concentration IC50, TPC): > 227 µM | IC50 (HepG2 cells [8]; Homo sapiens, HepG2, 72 h exposure, mean (n = 3) ± SEM, read-out: Inhibitory concentration IC50, MTT): > 227 µM | Cytotoxicity in B16 cell line [9]: poorly cytotoxic | IC50 (HepG2 cells [10]; Homo sapiens, HepG2, 72 h exposure, mean (n = 3) ± SEM, read-out: Inhibitory concentration IC50, NRU): > 227 µM

O=[N+]([O-])[O-].OCc1ccncc1.OCc1ccncc1.[Ag+] [Silver(I) + 4-hydroxymethylpyridine, [(4-hydroxymethylpyridine)2Ag]NO3]
Lowest concentration with significant (p ≤ 0.05) decrease of total protein content (TPC) (HepG2 cells [2]): 7.6 µM | Lowest concentration with significant (p ≤ 0.05) disintegration of the cellular membrane (LDH) (HepG2 cells [3]): 3.8 µM | Lowest concentration with significant (p ≤ 0.05) inhibition of lysosomal activity (NRU) (Balb/c 3T3 cells [4]): 0.98 µM | Lowest concentration with significant (p ≤ 0.05) disintegration of the cellular membrane (LDH) (Balb/c 3T3 cells [5]): 0.98 µM | Lowest concentration with significant (p ≤ 0.05) inhibition of mitochondrial activity (MTT) (Balb/c 3T3 cells [6]): 3.8 µM | Lowest concentration with significant (p ≤ 0.05) decrease of total protein content (TPC) (Balb/c 3T3 cells [7]): 1.9 µM | Lowest concentration with significant (p ≤ 0.05) inhibition of mitochondrial activity (MTT) (HepG2 cells [8]): 3.8 µM | Lowest concentration with significant (p ≤ 0.05) inhibition of lysosomal activity (NRU) (HepG2 cells [10]): 3.8 µM

Cc1ncc([N+](=O)[O-])n1CCO.Cc1ncc([N+](=O)[O-])n1CCO.O=[N+]([O-])[O-].[Ag+] [Silver(I) + metronidazole, [(Metronidazole)2AgNO3]]
Lowest concentration with significant (p ≤ 0.05) decrease of total protein content (TPC) (HepG2 cells [2]): 3.0 µM | Lowest concentration with significant (p ≤ 0.05) disintegration of the cellular membrane (LDH) (HepG2 cells [3]): 6.0 µM | Lowest concentration with significant (p ≤ 0.05) inhibition of lysosomal activity (NRU) (Balb/c 3T3 cells [4]): 3.0 µM | Lowest concentration with significant (p ≤ 0.05) disintegration of the cellular membrane (LDH) (Balb/c 3T3 cells [5]): 0.74 µM | Lowest concentration with significant (p ≤ 0.05) inhibition of mitochondrial activity (MTT) (Balb/c 3T3 cells [6]): 0.74 µM | Lowest concentration with significant (p ≤ 0.05) decrease of total protein content (TPC) (Balb/c 3T3 cells [7]): 3.0 µM | Lowest concentration with significant (p ≤ 0.05) inhibition of mitochondrial activity (MTT) (HepG2 cells [8]): 6.0 µM | Lowest concentration with significant (p ≤ 0.05) inhibition of lysosomal activity (NRU) (HepG2 cells [10]): 6.0 µM
